Assay results: ChEMBL document CHEMBL5303573, “Mapping human microbiome drug metabolism by gut bacteria and their genes” (Nature, 2019)

Tests used:
[1] = The drug is tested on Bifidobacterium ruminantium strain: fecal isolate for biotransformation. The drug concentrations were measured before and after a 12-h incubation by liquid-chromatography-coupled mass spectrometry (LC–MS); settings: 2 µM
[2] = bacteroides thetaiotaomicron, 12 h, 2 µM
Description: The drug is tested on Bacteroides thetaiotaomicron strain: 3731 for biotransformation. The drug concentrations were measured before and after a 12-h incubation by liquid-chromatography-coupled mass spectrometry (LC–MS)

[3] = The drug is tested on Enterococcus faecalis strain: V583 for biotransformation. The drug concentrations were measured before and after a 12-h incubation by liquid-chromatography-coupled mass spectrometry (LC–MS); settings: 2 µM
[4] = The drug is tested on Anaerotruncus colihominis strain: DSM17241 for biotransformation. The drug concentrations were measured before and after a 12-h incubation by liquid-chromatography-coupled mass spectrometry (LC–MS); settings: 2 µM
[5] = The drug is tested on Ruminococcus lactaris strain: ATCC29176 for biotransformation. The drug concentrations were measured before and after a 12-h incubation by liquid-chromatography-coupled mass spectrometry (LC–MS); settings: 2 µM
[6] = The drug is tested on Bacteroides caccae strain: ATCC43185 for biotransformation. The drug concentrations were measured before and after a 12-h incubation by liquid-chromatography-coupled mass spectrometry (LC–MS); settings: 2 µM
Regulatory protein = target: T1, Regulatory protein (Bacteroides thetaiotaomicron, UniProt Q8A576); assay: (§1) The drug is tested on Bacteroides thetaiotaomicron strain: VPI-5482 for biotransformation. The drug concentrations were measured before and after a 12-h incubation by liquid-chromatography-coupled mass spectrometry (LC–MS); type: ADME; design: dose 2 uM; settings: 2 µM
T1 sequence (Q8A576 whole entry): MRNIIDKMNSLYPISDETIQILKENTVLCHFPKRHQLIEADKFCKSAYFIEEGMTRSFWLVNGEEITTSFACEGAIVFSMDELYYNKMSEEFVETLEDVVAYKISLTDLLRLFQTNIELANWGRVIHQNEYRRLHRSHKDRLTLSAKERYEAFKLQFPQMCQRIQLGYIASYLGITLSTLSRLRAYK

[7] = target: T2, NADH dehydrogenase/NAD(P)H nitroreductase (Bacteroides thetaiotaomicron, UniProt Q8A8L9); assay: as §1; type: ADME; design: dose 2 uM; settings: 2 µM
T2 sequence (Q8A8L9 whole entry): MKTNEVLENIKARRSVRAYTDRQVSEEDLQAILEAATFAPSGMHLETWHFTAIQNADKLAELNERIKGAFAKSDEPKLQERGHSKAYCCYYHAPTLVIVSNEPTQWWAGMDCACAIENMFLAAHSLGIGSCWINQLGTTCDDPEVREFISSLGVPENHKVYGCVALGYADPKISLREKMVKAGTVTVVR

Acylhydrolase = target: T3, Acylhydrolase (Bacteroides thetaiotaomicron, UniProt Q8AA96); assay: as §1; type: ADME; design: dose 2 uM; settings: 2 µM
T3 sequence (Q8AA96 whole entry): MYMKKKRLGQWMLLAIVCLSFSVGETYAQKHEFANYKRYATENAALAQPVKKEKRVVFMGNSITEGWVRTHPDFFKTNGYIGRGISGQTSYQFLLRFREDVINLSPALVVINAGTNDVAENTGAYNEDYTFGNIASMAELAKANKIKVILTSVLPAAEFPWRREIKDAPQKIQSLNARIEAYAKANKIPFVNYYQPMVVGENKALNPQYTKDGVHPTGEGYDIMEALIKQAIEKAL

[8] = target: T4, Lipolytic enzyme, G-D-S-L family (Bacteroides thetaiotaomicron, UniProt Q8A0E6); assay: as §1; type: ADME; design: dose 2 uM; settings: 2 µM
T4 sequence (Q8A0E6 whole entry): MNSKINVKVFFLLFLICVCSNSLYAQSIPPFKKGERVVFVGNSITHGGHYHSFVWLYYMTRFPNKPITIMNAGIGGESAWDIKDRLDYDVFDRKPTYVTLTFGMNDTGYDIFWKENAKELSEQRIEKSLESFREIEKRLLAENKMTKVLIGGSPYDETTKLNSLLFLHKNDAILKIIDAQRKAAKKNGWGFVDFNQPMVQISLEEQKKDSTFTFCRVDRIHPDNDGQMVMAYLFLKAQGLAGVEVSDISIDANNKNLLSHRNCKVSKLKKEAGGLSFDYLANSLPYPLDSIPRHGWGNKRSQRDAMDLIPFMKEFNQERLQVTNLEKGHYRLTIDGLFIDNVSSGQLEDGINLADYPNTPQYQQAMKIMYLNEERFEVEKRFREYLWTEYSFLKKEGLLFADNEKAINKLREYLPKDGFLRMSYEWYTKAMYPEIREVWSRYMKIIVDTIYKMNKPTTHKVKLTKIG

Nitroreductase = target: T5, Nitroreductase (Bacteroides thetaiotaomicron, UniProt Q8A911); assay: as §1; type: ADME; design: dose 2 uM; settings: 2 µM
T5 sequence (Q8A911 whole entry): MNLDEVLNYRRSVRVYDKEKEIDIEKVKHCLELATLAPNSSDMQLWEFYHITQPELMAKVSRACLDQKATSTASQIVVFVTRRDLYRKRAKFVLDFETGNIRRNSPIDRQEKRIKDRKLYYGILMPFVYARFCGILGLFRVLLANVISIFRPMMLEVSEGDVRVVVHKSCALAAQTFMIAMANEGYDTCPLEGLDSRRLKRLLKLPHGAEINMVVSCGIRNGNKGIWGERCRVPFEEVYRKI

[9] = target: T6, Nitroreductase-like protein (Bacteroides thetaiotaomicron, UniProt Q8AB93); assay: as §1; type: ADME; design: dose 2 uM; settings: 2 µM
T6 sequence (Q8AB93 whole entry): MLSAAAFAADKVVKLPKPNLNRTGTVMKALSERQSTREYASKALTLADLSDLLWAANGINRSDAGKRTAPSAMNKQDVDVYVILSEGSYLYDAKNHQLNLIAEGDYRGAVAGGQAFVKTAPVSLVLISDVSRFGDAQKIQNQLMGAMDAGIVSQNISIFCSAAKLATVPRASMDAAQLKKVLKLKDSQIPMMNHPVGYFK

[10] = target: T7, 3-oxo-5-alpha-steroid 4-dehydrogenase (Bacteroides thetaiotaomicron, UniProt Q8A618); assay: as §1; type: ADME; design: dose 2 uM; settings: 2 µM
T7 sequence (Q8A618 whole entry): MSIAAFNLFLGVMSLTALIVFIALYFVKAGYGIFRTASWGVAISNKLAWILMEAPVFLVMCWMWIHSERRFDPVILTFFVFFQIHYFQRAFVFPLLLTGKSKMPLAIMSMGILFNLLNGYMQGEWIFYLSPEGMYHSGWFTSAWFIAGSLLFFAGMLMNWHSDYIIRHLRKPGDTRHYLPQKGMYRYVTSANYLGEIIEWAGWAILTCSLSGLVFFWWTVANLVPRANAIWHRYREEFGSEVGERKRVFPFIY

General stress protein = General stress protein (Bacteroides thetaiotaomicron, UniProt Q8A7U5); assay: as §1; type: ADME; design: dose 2 uM; settings: 2 µM
Sequence of General stress protein (Q8A7U5 1-138, change not shown): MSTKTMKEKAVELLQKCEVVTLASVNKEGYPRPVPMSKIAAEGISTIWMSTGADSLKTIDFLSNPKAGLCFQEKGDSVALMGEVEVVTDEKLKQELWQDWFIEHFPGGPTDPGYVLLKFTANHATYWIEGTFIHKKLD

[11] = The drug is tested on Bacteroides dorei strain: DSM17855 for biotransformation. The drug concentrations were measured before and after a 12-h incubation by liquid-chromatography-coupled mass spectrometry (LC–MS); settings: phocaeicola dorei, 2 µM

Row | Structure (SMILES) | Bacterial Biotransformation [1] | Bacterial Biotransformation [2] | Bacterial Biotransformation [3] | Bacterial Biotransformation [4] | Bacterial Biotransformation [5] | Bacterial Biotransformation [6] | Bacterial Biotransformation (Regulatory protein) | Bacterial Biotransformation [7] | Bacterial Biotransformation (Acylhydrolase) | Bacterial Biotransformation [8] | Bacterial Biotransformation (Nitroreductase) | Bacterial Biotransformation [9] | Bacterial Biotransformation [10] | Bacterial Biotransformation (General stress protein) | Bacterial Biotransformation [11]
1 | CC(=O)Oc1ccc(C(c2ccc(OC(C)=O)cc2)c2ccccn2)cc1 [BISACODYL] | Compound metabolized | Compound metabolized | Compound metabolized | Compound metabolized | Compound metabolized | Compound metabolized | Compound NOT metabolized | Compound NOT metabolized | Compound metabolized | Compound NOT metabolized | Compound NOT metabolized | Compound NOT metabolized | Compound NOT metabolized | Compound NOT metabolized | Compound metabolized
2 | C#C[C@]1(O)CC[C@H]2[C@@H]3CCC4=Cc5oncc5C[C@]4(C)[C@H]3CC[C@@]21C [DANAZOL] | Compound metabolized | Compound metabolized | Compound metabolized | Compound metabolized | Compound metabolized | Compound metabolized | Compound NOT metabolized | Compound NOT metabolized | Compound metabolized | Compound NOT metabolized | Compound NOT metabolized | Compound NOT metabolized | Compound NOT metabolized | Compound NOT metabolized | Compound metabolized
3 | CC(=O)OCC(=O)[C@@]12N=C(C)O[C@@H]1C[C@H]1[C@@H]3CCC4=CC(=O)C=C[C@]4(C)[C@H]3[C@@H](O)C[C@@]12C [DEFLAZACORT] | Compound metabolized | Compound metabolized | Compound metabolized | Compound metabolized | Compound metabolized | Compound metabolized | Compound NOT metabolized | Compound NOT metabolized | Compound metabolized | Compound NOT metabolized | Compound NOT metabolized | Compound NOT metabolized | Compound NOT metabolized | Compound NOT metabolized | Compound metabolized
4 | CC(=O)Nc1ccc(OC(C)=O)cc1 [DIACETAMATE] | Compound metabolized | Compound metabolized | Compound metabolized | Compound metabolized | Compound metabolized | Compound metabolized | Compound metabolized | Compound NOT metabolized | Compound metabolized | Compound NOT metabolized | Compound NOT metabolized | Compound NOT metabolized | Compound NOT metabolized | Compound NOT metabolized | Compound metabolized

The remaining lines, values ahead:

Row | Bacterial Biotransformation [1] | Bacterial Biotransformation [2] | Bacterial Biotransformation [3] | Bacterial Biotransformation [4] | Bacterial Biotransformation [5] | Bacterial Biotransformation [6] | Bacterial Biotransformation (Regulatory protein) | Bacterial Biotransformation [7] | Bacterial Biotransformation (Acylhydrolase) | Bacterial Biotransformation [8] | Bacterial Biotransformation (Nitroreductase) | Bacterial Biotransformation [9] | Bacterial Biotransformation [10] | Bacterial Biotransformation (General stress protein) | Bacterial Biotransformation [11] | Structure (SMILES)
5 | Compound metabolized | Compound metabolized | Compound metabolized | Compound metabolized | Compound metabolized | Compound metabolized | Compound NOT metabolized | – | Compound NOT metabolized | Compound NOT metabolized | Compound NOT metabolized | Compound metabolized | Compound NOT metabolized | Compound NOT metabolized | Compound metabolized | CCOC(=O)C1=C(C)NC(C)=C(C(=O)OC)C1c1cccc([N+](=O)[O-])c1 (stereo not drawn) [NITRENDIPINE]
6 | – | Compound metabolized | – | – | Compound metabolized | – | Compound NOT metabolized | Compound NOT metabolized | Compound metabolized | Compound NOT metabolized | Compound NOT metabolized | Compound NOT metabolized | Compound NOT metabolized | Compound NOT metabolized | Compound metabolized | CC(=O)SCC(Cc1ccccc1)C(=O)NCC(=O)OCc1ccccc1 (stereo not drawn) [RACECADOTRIL]
7 | Compound metabolized | Compound metabolized | Compound metabolized | Compound metabolized | Compound metabolized | Compound metabolized | Compound metabolized | Compound NOT metabolized | Compound metabolized | – | Compound NOT metabolized | Compound NOT metabolized | Compound NOT metabolized | Compound NOT metabolized | Compound metabolized | CC(=O)OCC(=O)NCCCOc1cccc(CN2CCCCC2)c1 [ROXATIDINE ACETATE]
8 | Compound metabolized | Compound metabolized | Compound metabolized | Compound metabolized | Compound metabolized | Compound metabolized | Compound NOT metabolized | Compound NOT metabolized | – | Compound NOT metabolized | Compound NOT metabolized | Compound metabolized | Compound NOT metabolized | Compound metabolized | Compound metabolized | O=C(O)c1cc(/N=N/c2ccc(S(=O)(=O)Nc3ccccn3)cc2)ccc1O [SULFASALAZINE]
